# [ ]: non-standard residue; d: D form. Orn = NCCC[C@H](N)C(=O)O
# Assays:
# [1] = test system: rosacea; test: Topical treatment of a subject afflicted with rosacea, two-year trial period (Example 2); type: in vivo, human
# Description: A subject afflicted with rosacea received topical Metrogel™ overlayed with Lubriderm™ lotion in the morning and 1% loloatin B formulated in Lubriderm™ (as described above) in the evening. […] With this combined treatment, the rosacea was controlled such that only a few lesions were present at any given time, and complete remissions of several days duration became common.
# [2] = test system: rosacea; test: Topical treatment of a human subject with moderately severe rosacea and pustular lesions (Example 1); type: in vivo
# Method: The effectiveness of a cyclic decapeptide antibiotic for treating rosacea was determined on a human subject afflicted, for two years duration, with moderately severe rosacea and pustular lesions. […] The subject received topical metronidazole in a carbomer gel composition (Metrogel™) applied in the morning. Topical loloatin B (which was obtained by fermentation of the Bacillus deposited as ATCC 55797 generally following the methods described in WO98/04584) was applied in the evening. The loloatin was first dissolved in a minimal amount of alcohol which was then mixed with Lubriderm™ lotion to provide 1% w/v formulation.
# [3] = test system: rosacea; settings: metronidazole administered topically twice daily; cited from earlier work
Compound,"control of the condition ([1]; combined Metrogel morning / 1% loloatin B evening, throughout the trial period (two years))",healing time of the lesions ([1]; combined treatment Metrogel morning / 1% loloatin B evening) [days],course of the rosacea ([1]; topical Metrogel overlayed with Lubriderm in the morning plus 1% loloatin B in Lubriderm in the evening),improvement in the rosacea on reinstituting the regimen ([2]; each time once daily Metrogel and once daily loloatin was reinstituted),"improvement in the rosacea ([2]; topical Metrogel in the morning plus 1% w/v loloatin B in Lubriderm lotion in the evening, after one month)","benefit of previous treatments ([2]; previous treatments with metronidazole, same subject)",patients who do not benefit from treatment [3]
cyclo[L-Val-L-Orn-L-Leu-D-Tyr-L-Pro-L-Phe-D-Phe-L-Asn-L-Asp-L-Trp] (cyclo(V[Orn]L[dY]PF[dF]NDW); SMILES CC(C)C[C@@H]1NC(=O)[C@H](CCCN)NC(=O)[C@H](C(C)C)NC(=O)[C@H](Cc2c[nH]c3ccccc23)NC(=O)[C@H](CC(=O)O)NC(=O)[C@H](CC(N)=O)NC(=O)[C@@H](Cc2ccccc2)NC(=O)[C@H](Cc2ccccc2)NC(=O)[C@@H]2CCCN2C(=O)[C@@H](Cc2ccc(O)cc2)NC1=O) [loloatin B],effectively controlled,2 to 3,Progressive improvement,significant improvement,Significant improvement,,
"Cc1ncc([N+](=O)[O-])n1CCO [metronidazole, reference compound]",,,,,,without benefit,about 50%

# From patent publication US7153826B2, “Treatment of rosacea” (Seatek Marine Biotechnology, Inc., priority 2000, dated 2006)
